Data on 14 compounds can be found in US20160220689A1, “MACROMOLECULES OF DENDRIMER-PLATINUM CONJUGATES” (priority 2013, published 2016).

In data set [1] the test system is SW620 cells. The data set can be described thus: Xenograft model efficacy study. The conditions noted are these: IV days 1, 8, 15, Oxaliplatin 5, Compound 1 8.5, Compound 5 9 mg/kg Pt equivalents.
Procedure: Thirteen days later, 50 mice with similar sized tumors (˜110 mm^3) were randomized into 4 groups (n=12). All compounds were dissolved in 5% glucose at the concentration required to achieve administration of 0.1 mL/10 g body eight.
Data set [2] relates to FADU (head and neck). The data set can be described thus: Sulforhodamine B (SRB) cell growth inhibition assay. The conditions noted are these: 72 hours, based on equivalent platinum loading, standard drugs on total molecular weight. As to the method:
(§1) Cell growth inhibition was determined using the Sulforhodamine B (SRB) assay (Voigt W., “Sulforhodamine B assay and chemosensitivity” Methods Mol. Med., 2005, 110, 39-48) against various cancer cell lines after 72 hours.
(§2) All solutions were prepared in saline and were stored at −20° C. All values were based on equivalent platinum loading except standard drugs which were calculated on total molecular weight. The results are shown in Table 1 in the micromolar range.

The test system of data set [3] is LoVo (colon). Described as above. The conditions noted are these: 72 hours, based on equivalent platinum loading, standard drugs on total molecular weight. The procedure: as §1, §2
Data set [4] has as its system 2008 (ovarian). Described as above. The conditions noted are these: 72 hours, based on equivalent platinum loading, standard drugs on total molecular weight. As to the method:
as §1, §2

Data set [5] relates to SW620 (colon). The description is as above. The conditions noted are these: 72 hours, based on equivalent platinum loading, standard drugs on total molecular weight. The procedure:
as §1, §2

A short description of data set [6]: Maximum tolerated dosage in mice. Particulars: intravenous, once weekly for three weeks (day 1, 8 and 15), female Balb/c mice. The text has this:
Mice were weighed daily and watched for signs of toxicity. Animals were monitored for up to 10 days following the final drug dose. Any mice exceeding ethical endpoints (>20% body weight loss, poor general health) were immediately sacrificed and observations were noted.

Data set [7] is described as follows: Toxicity study: blood cell counts in tumor-bearing mice. Particulars: Oxaliplatin 5, Compound 1 8.5, Compound 5 9 mg/kg Pt equivalents IV days 1, 8, 15. The procedure: The mice were randomised into 4 groups of n=5 mice, (mean tumor volume ˜90 mm^3) On day one, animals were eye bled in the morning for baseline cell counts and then drug dosing commenced later that day. Drug dosing was performed on days 1, 8 and 15 at the previously determined maximum tolerated doses. All compounds were dissolved in 5% glucose at the concentration required to allow administration of 0.1 mL/10 g body weight. […] Subsequent eye bleeds were performed on days 7, 14 and 26 (Tables 4 A-D, in each case data represented as mean ratio of counts for each time point relative to that at the baseline).

Data set [8] relates to OE21 (head and neck). The data set can be described thus: Sulforhodamine B (SRB) cell growth inhibition assay. Particulars: 72 hours, based on equivalent platinum loading, standard drugs on total molecular weight. As to the method: as §1, §2
For data set [9] the following is noted: cited from earlier work.

As a reminder, the GI50 is the concentration that inhibits growth by half. As for “BHALys[Lys]32[α-Succ-Gly-Gly-Gly-amino malonic acid-Pt-1R,2R-(DACH)]32[ε-PEG2200]32 [Compound 1]”, the “Mean Tumor Volume” value in data set [1] (Day 1) is on record as 100.47 mm^3; in data set [1] (Day 7), 184.55 mm^3; in [1] (Day 14), 283.02 mm^3; in data set [1] (Day 21), 316.90 mm^3. For the same compound, the GI50 worked out at 9 µM in data set [2], 7.5 µM in [3], 4.5 µM in data set [4] and 3.5 µM in [5].
As for “BHALys[Lys]32[α-thiodiglycolic acid-4-oxy-1,1-cyclohexane dicarboxylic acid —Pt-1R,2R-(DACH)]32[ε-PEG2200]32 [Compound 12]”, the “Tolerated Dose” value in [6] is greater than 60 mg/Kg Pt equivalents. Also, the GI50 in data set [2] came to 8.5 µM; in [3], 5 µM; in [4], 6 µM; in data set [5], 2.5 µM.
As to “BHALys[Lys]32[α-Succ-Gly-Gly-Gly-amino malonic acid-O,N—Pt-diammine]32[ε-PEG2200]32 [Compound 3]”, the GI50 in data set [2] is greater than 300 µM; in data set [3], greater than 300 µM; in [4], 69 µM; in data set [5] it was greater than 300 µM.
With oxaliplatin [reference compound], the “Mean lymphocytes counts (baseline corrected) (SEM)” value in [7] (Day 1 (baseline)) was 1.000 (0.125); in data set [7] (Day 7), 0.240 (0.130); in data set [7] (Day 14), 0.302 (0.066); in data set [7] (Day 26), 0.380 (0.154). Further, the “Mean Tumor Volume” value in data set [1] (Day 1) is recorded as 100.56 mm^3; in [1] (Day 7) it was 203.06 mm^3; in [1] (Day 14), 340.50 mm^3; in data set [1] (Day 21), 501.57 mm^3. The GI50 in data set [2] came out at 0.9 µM; in data set [8], 1 µM; in data set [3], 0.5 µM; in data set [4], 0.2 µM; in data set [5], 0.2 µM.
Consider “BHALys[Lys]32[α-Succ-Gly-Leu-Phe-Gly-amino malonic acid-N,O—Pt-1R,2R-(DACH)]32[ε-PEG1100]32 [Compound 6]”, for which the GI50 turned out to be 12 µM in data set [2]; 14.5 µM in [8]; 8.1 µM in data set [3]; 3.9 µM in data set [4]; 4.2 µM in [5].
Regarding “BHALys[Lys]32[α-diglycolic acid-5R-oxy-(1R,2R)-diaminocyclohexane-oxalato-Platinum (II)]32[ε-PEG2200]32 [Compound 13]”, the “Tolerated Dose” value in [6] is given as greater than 35 mg/Kg Pt equivalents.
Turning to `N.N.[Cl][Pt][Cl]` [Cisplatin, cisplatin, reference compound], in data set [9] (patients treated with the drug), the “patients with tinnitus and hearing loss” value is “up to 31%”. Also, the GI50 in data set [2] turned out to be 2 µM; in data set [8], 0.4 µM; in [3], 2.8 µM; in data set [4] it was 0.5 µM; in [5] it was 3.6 µM.
“BHALys[Lys]32[α-Succ-Pro-Val-Gly-Leu-Ile-Gly-amino malonic acid N,O—Pt-diamine]32[ε-PEG1100]32 [Compound 8]”: the GI50 in data set [2] was 71 µM; in data set [8] it was 26.5 µM; in data set [3], 72 µM; in [4] it was 18 µM; in [5], 63 µM.
Take “BHALys[Lys]32[α-Succ-Gly-Leu-Phe-Gly-amino malonic acid-Pt-1R,2R-(DACH)]32[ε-PEG2200]32 [Compound 5]”: the “Mean Tumor Volume” value stood at 100.96 mm^3 in data set [1] (Day 1), 196.01 mm^3 in [1] (Day 7), 303.00 mm^3 in data set [1] (Day 14) and 363.01 mm^3 in data set [1] (Day 21). In addition, the GI50 in data set [2] was found to be 3 µM; in data set [3], 3 µM; in [4], 2.5 µM; in data set [5], 1.5 µM.
On to `N.N.O=C([O-])C1(C(=O)[O-])CCC1.[Pt+2]` [Carboplatin, carboplatin, reference compound], for which the “patients developing peripheral neurotoxicity” value in data set [9] (patients receiving the drug) is recorded as 4-6%. Also, the GI50 came to 20 µM in data set [2]; 3.6 µM in data set [8]; 23 µM in data set [3]; 4.9 µM in data set [4]; 33.5 µM in [5].
As for “BHALys[Lys]32[α-diglycolic acid-5S-oxy-(1R,2R)-diaminocyclohexane-oxalato-Platinum (II)]32[ε-PEG2200]32 [Compound 14]”, the “Tolerated Dose” value in data set [6] is greater than 35 mg/Kg Pt equivalents.
On to “BHALys[Lys]32[α-Succ-Gly-Leu-Phe-Gly-amino malonic acid-N,O—Pt-diammine]32[ε-PEG1100]32 [Compound 7]”, for which the GI50 was 150 µM in [2]; greater than 30 µM in data set [8]; 220 µM in [3]; 36 µM in [4]; 170 µM in data set [5].
As to “BHALys[Lys]32[α-Succ-Gly-Gly-Gly-amino malonic acid-O,O′—Pt-diammine]32[ε-PEG2200]32 [Compound 2]”, the GI50 in data set [2] is 200 µM; in data set [8] it was greater than 30 µM; in [3], 170 µM; in [4] it was 41 µM; in data set [5], greater than 300 µM.
For the compound “BHALys[Lys]32[α-Succ-Gly-Gly-Gly-amino malonic acid-N,O—Pt-1R,2R-(DACH)]32[ε-PEG1100]32 [Compound 4]”, the GI50 came out at 9.5 µM in [2]; 7.4 µM in data set [8]; 13 µM in data set [3]; 6.4 µM in data set [4]; 6.7 µM in data set [5].
